Results as given in PubChem BioAssay (NCI).
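Exposure lasted 48 hours, with cells grown in 96-well plates and compounds tested at five concentrations. TGI: total growth inhibition.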

Experiments:
Experiment in all cases: NCI anticancer screen, dose series, 48 h
CCRF-CEM leukemia = system: CCRF-CEM leukemia
HCC-2998 colon = system: HCC-2998 colon
SK-MEL-2 melanoma = system: SK-MEL-2 melanoma
TK-10 renal = system: TK-10 renal
HOP-92 NSCLC = system: HOP-92 NSCLC
SW-620 colon = system: SW-620 colon
SF-268 CNS = system: SF-268 CNS
LXFL 529 NSCLC = system: LXFL 529 NSCLC
KM20L2 colon = system: KM20L2 colon
UO-31 renal = system: UO-31 renal
A498 renal = system: A498 renal
SK-OV-3 ovarian = system: SK-OV-3 ovarian
UACC-62 melanoma = system: UACC-62 melanoma
SK-MEL-28 melanoma = system: SK-MEL-28 melanoma
NCI-H522 lung = system: NCI-H522 lung
NCI-H23 lung = system: NCI-H23 lung
IGROV1 ovarian = system: IGROV1 ovarian
OVCAR-5 ovarian = system: OVCAR-5 ovarian
A549 NSCLC = system: A549 NSCLC
SF-539 CNS = system: SF-539 CNS
HOP-62 NSCLC = system: HOP-62 NSCLC
HT29 colon = system: HT29 colon
SN12C renal = system: SN12C renal
ACHN renal = system: ACHN renal
SR leukemia = system: SR leukemia
MALME-3M melanoma = system: MALME-3M melanoma
OVCAR-4 ovarian = system: OVCAR-4 ovarian
HCT-116 colon = system: HCT-116 colon
SF-295 CNS = system: SF-295 CNS
M14 melanoma = system: M14 melanoma
COLO 205 colon = system: COLO 205 colon
OVCAR-3 ovarian = system: OVCAR-3 ovarian
SNB-19 CNS = system: SNB-19 CNS
MOLT-4 leukemia = system: MOLT-4 leukemia
DMS 114 small cell lung = system: DMS 114 small cell lung
HCT-15 colon = system: HCT-15 colon
K-562 leukemia = system: K-562 leukemia
SNB-78 CNS = system: SNB-78 CNS
XF 498 CNS = system: XF 498 CNS
DMS 273 small cell lung = system: DMS 273 small cell lung
786-0 renal = system: 786-0 renal
M19-MEL melanoma = system: M19-MEL melanoma
SK-MEL-5 melanoma = system: SK-MEL-5 melanoma
KM12 colon = system: KM12 colon
NCI-H460 lung = system: NCI-H460 lung
OVCAR-8 ovarian = system: OVCAR-8 ovarian
UACC-257 melanoma = system: UACC-257 melanoma
NCI-H226 lung = system: NCI-H226 lung
LOX IMVI melanoma = system: LOX IMVI melanoma
RPMI-8226 leukemia = system: RPMI-8226 leukemia
EKVX NSCLC = system: EKVX NSCLC
HL-60(TB) leukemia = system: HL-60(TB) leukemia
SNB-75 CNS = system: SNB-75 CNS
U251 CNS = system: U251 CNS
RXF 393 renal = system: RXF 393 renal
CAKI-1 renal = system: CAKI-1 renal
DLD-1 colon = system: DLD-1 colon

In the case of `CC(=O)NNc1nc(C)c(C(=O)NNC(=O)C(=O)Nc2c(C)cccc2C(C)C)s1`, the TGI (CCRF-CEM leukemia) is reported as > 100 µM, the TGI (HCC-2998 colon) is reported as > 100 µM and the TGI (SK-MEL-2 melanoma) is reported as > 100 µM. The TGI (TK-10 renal) was > 100 µM, the TGI (HOP-92 NSCLC) was > 100 µM and the TGI (SW-620 colon) was > 100 µM. The TGI (SF-268 CNS) was > 100 µM, the TGI (LXFL 529 NSCLC) was > 100 µM and the TGI (KM20L2 colon) was > 100 µM. For the same compound, the TGI (UO-31 renal) was > 100 µM, the TGI (A498 renal) was > 100 µM and the TGI (SK-OV-3 ovarian) was > 100 µM. For the same compound, the TGI (UACC-62 melanoma) was > 100 µM, the TGI (SK-MEL-28 melanoma) was > 100 µM and the TGI (NCI-H522 lung) was > 100 µM. The TGI (NCI-H23 lung) was > 100 µM, the TGI (IGROV1 ovarian) was > 100 µM and the TGI (OVCAR-5 ovarian) was > 100 µM. For the same compound, the TGI (A549 NSCLC) was > 100 µM, the TGI (SF-539 CNS) was > 100 µM and the TGI (HOP-62 NSCLC) was > 100 µM. The TGI (HT29 colon) was > 100 µM, the TGI (SN12C renal) was > 100 µM and the TGI (ACHN renal) was > 100 µM. For the same compound, the TGI (SR leukemia) was > 100 µM, the TGI (MALME-3M melanoma) was > 100 µM and the TGI (OVCAR-4 ovarian) was > 100 µM. The TGI (HCT-116 colon) was > 100 µM, the TGI (SF-295 CNS) was > 100 µM and the TGI (M14 melanoma) was > 100 µM. The TGI (COLO 205 colon) was > 100 µM, the TGI (OVCAR-3 ovarian) was > 100 µM and the TGI (SNB-19 CNS) was > 100 µM. For the same compound, the TGI (MOLT-4 leukemia) was > 100 µM, the TGI (DMS 114 small cell lung) was > 100 µM and the TGI (HCT-15 colon) was > 100 µM. For the same compound, the TGI (K-562 leukemia) was > 100 µM, the TGI (SNB-78 CNS) was > 100 µM and the TGI (XF 498 CNS) was > 100 µM. For the same compound, the TGI (DMS 273 small cell lung) was > 100 µM, the TGI (786-0 renal) was > 100 µM and the TGI (M19-MEL melanoma) was > 100 µM. For the same compound, the TGI (SK-MEL-5 melanoma) was > 100 µM, the TGI (KM12 colon) was > 100 µM and the TGI (NCI-H460 lung) was > 100 µM. For the same compound, the TGI (OVCAR-8 ovarian) was > 100 µM, the TGI (UACC-257 melanoma) was > 100 µM and the TGI (NCI-H226 lung) was > 100 µM. The TGI (LOX IMVI melanoma) was > 100 µM, the TGI (RPMI-8226 leukemia) was > 100 µM and the TGI (EKVX NSCLC) was > 100 µM. For the same compound, the TGI (HL-60(TB) leukemia) was > 100 µM.
In the case of `O=C(Nc1ccc(F)cc1)C(=O)C(C(=O)c1ccccc1F)C1OC(=O)c2ccccc21` (stereo unspecified), the TGI (CCRF-CEM leukemia) is reported as 90.8 µM, the TGI (HCC-2998 colon) is reported as > 100 µM and the TGI (SK-MEL-2 melanoma) is reported as > 100 µM. For the same compound, the TGI (TK-10 renal) was > 100 µM, the TGI (HOP-92 NSCLC) was > 100 µM and the TGI (SW-620 colon) was > 100 µM. For the same compound, the TGI (SF-268 CNS) was > 100 µM, the TGI (LXFL 529 NSCLC) was > 100 µM and the TGI (KM20L2 colon) was > 100 µM. The TGI (UO-31 renal) was > 100 µM, the TGI (A498 renal) was > 100 µM and the TGI (SK-OV-3 ovarian) was > 100 µM. For the same compound, the TGI (SNB-75 CNS) was > 100 µM, the TGI (U251 CNS) was 66.1 µM and the TGI (RXF 393 renal) was > 100 µM. For the same compound, the TGI (UACC-62 melanoma) was > 100 µM, the TGI (SK-MEL-28 melanoma) was > 100 µM and the TGI (NCI-H522 lung) was 71.8 µM. For the same compound, the TGI (NCI-H23 lung) was > 100 µM, the TGI (IGROV1 ovarian) was > 100 µM and the TGI (OVCAR-5 ovarian) was > 100 µM. The TGI (A549 NSCLC) was > 100 µM, the TGI (SF-539 CNS) was 89.9 µM and the TGI (HOP-62 NSCLC) was > 100 µM. The TGI (HT29 colon) was > 100 µM, the TGI (SN12C renal) was > 100 µM and the TGI (CAKI-1 renal) was > 100 µM. The TGI (ACHN renal) was > 100 µM, the TGI (SR leukemia) was 59.6 µM and the TGI (OVCAR-4 ovarian) was > 100 µM. The TGI (HCT-116 colon) was > 100 µM, the TGI (SF-295 CNS) was > 100 µM and the TGI (M14 melanoma) was > 100 µM. The TGI (COLO 205 colon) was > 100 µM, the TGI (SNB-19 CNS) was > 100 µM and the TGI (MOLT-4 leukemia) was > 100 µM. For the same compound, the TGI (DMS 114 small cell lung) was > 100 µM, the TGI (HCT-15 colon) was > 100 µM and the TGI (K-562 leukemia) was > 100 µM. For the same compound, the TGI (SNB-78 CNS) was > 100 µM, the TGI (XF 498 CNS) was > 100 µM and the TGI (DMS 273 small cell lung) was > 100 µM. For the same compound, the TGI (SK-MEL-5 melanoma) was > 100 µM, the TGI (KM12 colon) was > 100 µM and the TGI (NCI-H460 lung) was > 100 µM. The TGI (OVCAR-8 ovarian) was > 100 µM, the TGI (UACC-257 melanoma) was > 100 µM and the TGI (NCI-H226 lung) was 63.5 µM. For the same compound, the TGI (LOX IMVI melanoma) was > 100 µM, the TGI (RPMI-8226 leukemia) was > 100 µM and the TGI (DLD-1 colon) was > 100 µM. The TGI (EKVX NSCLC) was > 100 µM and the TGI (HL-60(TB) leukemia) was > 100 µM.
In the case of `N#CCCN(c1ccc(/C=N/c2nc(-c3ccccc3)cs2)cc1)S(=O)(=O)c1ccccc1`, the TGI (CCRF-CEM leukemia) is reported as > 100 µM, the TGI (HCC-2998 colon) is reported as > 100 µM and the TGI (SK-MEL-2 melanoma) is reported as > 100 µM. For the same compound, the TGI (TK-10 renal) was > 100 µM, the TGI (SW-620 colon) was > 100 µM and the TGI (SF-268 CNS) was > 100 µM. The TGI (LXFL 529 NSCLC) was > 100 µM, the TGI (KM20L2 colon) was > 100 µM and the TGI (UO-31 renal) was > 100 µM. For the same compound, the TGI (A498 renal) was > 100 µM, the TGI (SK-OV-3 ovarian) was > 100 µM and the TGI (SNB-75 CNS) was 93.5 µM. For the same compound, the TGI (U251 CNS) was > 100 µM, the TGI (UACC-62 melanoma) was > 100 µM and the TGI (SK-MEL-28 melanoma) was > 100 µM. The TGI (NCI-H522 lung) was > 100 µM, the TGI (NCI-H23 lung) was > 100 µM and the TGI (IGROV1 ovarian) was > 100 µM. The TGI (OVCAR-5 ovarian) was > 100 µM, the TGI (A549 NSCLC) was > 100 µM and the TGI (SF-539 CNS) was > 100 µM. The TGI (HOP-62 NSCLC) was > 100 µM, the TGI (HT29 colon) was > 100 µM and the TGI (SN12C renal) was > 100 µM. For the same compound, the TGI (CAKI-1 renal) was > 100 µM, the TGI (MALME-3M melanoma) was > 100 µM and the TGI (OVCAR-4 ovarian) was > 100 µM. The TGI (HCT-116 colon) was > 100 µM, the TGI (SF-295 CNS) was > 100 µM and the TGI (M14 melanoma) was > 100 µM. For the same compound, the TGI (COLO 205 colon) was > 100 µM, the TGI (OVCAR-3 ovarian) was > 100 µM and the TGI (SNB-19 CNS) was > 100 µM. For the same compound, the TGI (MOLT-4 leukemia) was > 100 µM, the TGI (DMS 114 small cell lung) was > 100 µM and the TGI (HCT-15 colon) was > 100 µM. The TGI (K-562 leukemia) was > 100 µM, the TGI (SNB-78 CNS) was > 100 µM and the TGI (XF 498 CNS) was > 100 µM. The TGI (DMS 273 small cell lung) was > 100 µM, the TGI (786-0 renal) was > 100 µM and the TGI (M19-MEL melanoma) was > 100 µM. For the same compound, the TGI (SK-MEL-5 melanoma) was > 100 µM, the TGI (KM12 colon) was > 100 µM and the TGI (OVCAR-8 ovarian) was > 100 µM. For the same compound, the TGI (UACC-257 melanoma) was > 100 µM, the TGI (LOX IMVI melanoma) was > 100 µM and the TGI (RPMI-8226 leukemia) was > 100 µM. The TGI (DLD-1 colon) was > 100 µM, the TGI (EKVX NSCLC) was > 100 µM and the TGI (HL-60(TB) leukemia) was > 100 µM.
